Data as given in US20120245344A1 (NIPPON CHEMIPHAR CO., LTD., priority 2009, published 2012).
Entries after “also recorded” stand apart in the source; their conditions may differ.

How the values were obtained:
[1] = tested on: glycemic excursions after glucose administration in normal mice; assay: Oral glucose tolerance test in normal mice; type: in vivo, mice (male ICR); details: for Inhibition rate (%): 30 min before glucose 3 g/kg, area under the glycemic excursion curve 0-120 min versus vehicle
Procedure: In this experiment, the inhibitory effect of an analyte on glycemic excursions is examined after glucose administration in normal mice. The test methods are described below.
(§1) Male 9-week-old ICR mice, habituated to the experimental environment for two weeks, are fasted for 18 hours and used to this experiment. Mice are orally administered the analyte or vehicle (polyethylene glycol 400:ethanol:Tween 80=8:1:1). After 30 minutes, they were orally given glucose at the dose of 3 g/kg.
Blood was collected at just before the analyte or vehicle administration (−30 minutes), immediately before glucose challenge (0 minute), 20 minutes, 40 minutes, 60 minutes, and 120 minutes after glucose ingestion to determine blood glucose levels.
Inhibition rate (%) of the analyte versus vehicle in areas under the glycemic excursion curve between 0 and 120 min after glucose challenge is determined.
In this experiment, we examined the inhibitory effect of test compound on glycemic excursions after glucose administration in normal mice. The test methods are shown as follows.
as §1, with “were” for “are”, “test compound” for “analyte”, “400:ethanol:Tween80=8:1:1), and after” for “400:ethanol:Tween 80=8:1:1). After”
Blood was collected at just before the test compound or vehicle administration (−30 min), immediately before glucose challenge (0 min), 20 min, 40 min, 60 min and 120 min after glucose ingestion and then blood glucose levels were determined.
Inhibition rate (%) of the test compound versus vehicle in areas under the glycemic excursion curve between 0 and 120 min after glucose challenge was determined.
Except for the dose of test compounds made 1 mg/kg, the examination was performed by the method similar to Example 89 oral glucose tolerance test in normal mice.

human GPR119 = molecular target: T1, human GPR119 (Homo sapiens, UniProt Q8TDV5); assay: Measurement of intracellular cAMP in stable cell line expressing human GPR119 (GPR119 agonist effect); type: cell-based; details: for EC50: increase of intracellular cAMP, Flp-in T-Rex-293 cells expressing human GPR119, 37° C. for 30 minutes
T1 construct: expressed in transfected cells; host or cells: Flp-in T-Rex-293 cells (Invitrogen #R78007), plasmid pcDNA5/FRT/TO, expression induced with tetracycline
T1 sequence (Q8TDV5 1-335): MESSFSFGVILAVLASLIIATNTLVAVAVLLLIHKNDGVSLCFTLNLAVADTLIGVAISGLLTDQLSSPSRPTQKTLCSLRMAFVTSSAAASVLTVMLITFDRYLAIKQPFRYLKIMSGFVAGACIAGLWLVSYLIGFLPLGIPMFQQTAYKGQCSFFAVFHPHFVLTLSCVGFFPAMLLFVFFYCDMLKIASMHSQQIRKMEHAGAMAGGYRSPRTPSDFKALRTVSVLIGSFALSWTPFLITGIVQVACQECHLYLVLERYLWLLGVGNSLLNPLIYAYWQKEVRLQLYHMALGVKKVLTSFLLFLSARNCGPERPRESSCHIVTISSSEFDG
Source text: The GPR119 agonist effect is studied by measuring the effect of an analyte on increase of intracellular amount of cAMP in human GPR119 introduced cells. The testing method is described below.
Human GPR119 gene (NM 178471) is purchased from ATCC (ATCC No. 10807349), and is amplyfied according to PCR to form BamHI site at 5′ side and Apa I site at 3′ side. The primers are […] (sequence No. 1) and […] (sequence No. 2). The PCR conditions are described below.
The double-stranded DNA is thermally denatured using a DNA polymerase (KOD-Plus-Ver. 2; TOYOBO #KOD-211) at 98° C. for 10 seconds in one cycle. The denatured single-stranded DNA is annealed with the primers at 55° C. for 30 seconds. The DNA is subjected to an extension reaction at 68° C. for 1 minute and 15 seconds. The above-mentioned steps are repeated in 35 cycles. The PCR product is inserted into pcDNA5/FRT/TO (Invitrogen #V6520-20) plasmid. Flp-in T-Rex-293 cells (Invitorogen #R78007) are transfected with the obtained plasmid. The method of transfection is conducted in accordance with the protocol of the product.
(§2) The stable cell line expressing human GPR119 prepared in the above-mentioned method is plated on a 96-well plate at the concentration of 2,500 cells/well using Dulbecco's Modified Eagle Medium (DMEM) containing 10% fetal bovine serum (FBS). Twenty-four hours after plating, tetracyclin (Invitrogen #Q10019) is added at the final concentration of 20 ng/mL to induce hGPR119 gene expression. Twenty-four hours after, the medium is removed, and the cells are stimulated with an assay buffer (0.5 mM IBMX PBS (−)) containing the test compound at 37° C. for 30 minutes. The amount of the intracellular cAMP is measured using a commercially available kit (HitHunter™ cAMP XS+Assay: GE Healthcare #90007503) and a reader (FLUOstar Optima: BMG LABTECH). The test compound is dissolved in 100% DMSO, and added at the final concentration of 1%.
Human GPR119 gene (NM 178471) was purchased from ATCC (ATCC No. 10807349), and is amplyfied according to PCR to form BamHI site at 5′ side and Apa I site at 3′ side. The primers were […] (sequence No. 1) and […] (sequence No. 2). The PCR conditions are described below. The double-stranded DNA was thermally denatured using a DNA polymerase (KOD-Plus-Ver. 2; TOYOBO #KOD-211) at 98° C. for 10 seconds in one cycle. The denatured single-stranded DNA was annealed with the primers at 55° C. for 30 seconds. The DNA was subjected to an extension reaction at 68° C. for 1 minute and 15 seconds. The above-mentioned steps were repeated in 35 cycles. The PCR product was inserted into pcDNA5/FRT/TO (Invitrogen #V6520-20) plasmid. Flp-in T-Rex-293 cells (Invitorogen #R78007) were transfected with the obtained plasmid. The method of transfection was conducted in accordance with the protocol of the product.
as §2, with “method was” for “method is”, “#Q10019) was” for “#Q10019) is”, “medium was” for “medium is”, “cells were” for “cells are”, “cAMP was” for “cAMP is”, “compound was” for “compound is”
The examination was performed by the method similar to Example 87 Pharmacological experiment 1-(1), -(2).

[2] = 3 mg/kg, statement in words on Table 14
[3] = 1 mg/kg, statement in words on Table 15

## CC(C)(C)OC(=O)N1CCC(c2ccc(Cn3ccc4cc(S(C)(=O)=O)ccc43)nc2)CC1 [Example 1, tert-Butyl 4-[2-(5-methanesulfonylindol-1-ylmethyl)pyridin-5-yl]piperidine-1-carboxylate]
[1]; 3 mg/kg oral
  Inhibition rate (%): 37.9%
[1]; [2]
  inhibitory effect on glycemic excursions (in words): excellent inhibitory effect on glycemic excursions; also recorded: excellent inhibitory effect of glycemic excursions
Human GPR119
  EC50: 0.0212 µM

## CC(C)OC(=O)N1CCC(c2ccc(Cn3ccc4cc(-n5cnnn5)cc(F)c43)nc2)CC1 [Example 54, Isopropyl 4-[2-[7-fluoro-5-(tetrazol-1-yl)indol-1-ylmethyl]pyridin-5-yl]piperidine-1-carboxylate]
[1]; 1 mg/kg oral
  Inhibition rate (%): 36.0%
[1]; [3]
  inhibitory effect on glycemic excursions (in words): excellent inhibitory effect on glycemic excursions; also recorded: excellent inhibitory effect of glycemic excursions
Human GPR119
  EC50: 0.0096 µM

## CC(C)(C)OC(=O)N1CCC(c2ccc(C(=O)N3CCc4cc(S(C)(=O)=O)ccc43)nc2)CC1 [Example 8, tert-Butyl 4-[2-(5-methanesulfonylindoline-1-carbonyl)pyridin-5-yl]piperidine-1-carboxylate]
other
  melting point: 202 to 205 °C

## CC(C)(C)OC(=O)N1CCC(c2ccc(COc3ccc4c(c3)C=CS4(=O)=O)nc2)CC1 [Example 10, tert-Butyl 4-[2-(1,1-dioxo-1H-benzo[b]thiophen-5-yloxymethyl)pyridin-5-yl]piperidine-1-carboxylate]
other
  melting point: 154 to 157 °C
Human GPR119
  EC50: 0.353 µM

## CC(C)(C)OC(=O)N1CCC(c2ccc(CN3CCc4cc(S(C)(=O)=O)ccc43)nc2)CC1 [Example 2]
[1]; 3 mg/kg oral
  Inhibition rate (%): 33.7%
[1]; [2]
  inhibitory effect on glycemic excursions (in words): excellent inhibitory effect on glycemic excursions; also recorded: excellent inhibitory effect of glycemic excursions
Human GPR119
  EC50: 0.0205 µM
Human GPR119; statement in words on Tables 10 to 13
  GPR119 agonist effect (in words): excellent GPR119 agonist effect

## CC(C)(C)OC(=O)N1CCC(c2ccc(Cn3ccc4cc(S(C)(=O)=O)c(F)cc43)nc2)CC1 [Example 24, tert-Butyl 4-[2-(6-fluoro-5-methanesulfonylindol-1-ylmethyl)pyridin-5-yl]piperidine-1-carboxylate]
[1]; 1 mg/kg oral
  Inhibition rate (%): 37.9%
[1]; [3]
  inhibitory effect on glycemic excursions (in words): excellent inhibitory effect on glycemic excursions; also recorded: excellent inhibitory effect of glycemic excursions
Human GPR119
  EC50: 0.019 µM

## CC(C)(C)OC(=O)N1CCC(c2ccc(Cn3ccc4cc(S(C)(=O)=O)ccc43)nc2)C(C)(C)C1 (centres unmarked) [Example 46, tert-Butyl 3,3-dimethyl-4-[2-(5-methanesulfonylindol-1-ylmethyl)pyridin-5-yl]piperidine-1-carboxylate]
Human GPR119
  EC50: 0.111 µM
